We go through seven molecules from publication PMC6273847, “Protein Tyrosine Phosphatase 1B Inhibitors from the Stems of Akebia quinata” (Molecules, 2016).

Data set [1] has as its system MCF7/TAMR. Put plainly: Cytotoxic activity against tamoxifen-resistant MCF7 cells.
Data set [2] has as its system MCF7. Put plainly: Cytotoxic activity against MCF7 breast cancer cells.
For data set [3], the system named is MDA-MB-231. In words: Cytotoxic activity against MDA-MB-231 breast cancer cells.
The test system of data set [4] is MCF7, MDA-MB-231 and MCF7/TAMR breast cancer cell lines.
For data set [5], the target named is T1, PTP1B (human, recombinant) (Homo sapiens, UniProt P18031).
T1 construct: purchased BIOMOL International LP (USA)
T1 sequence (P18031 1-435): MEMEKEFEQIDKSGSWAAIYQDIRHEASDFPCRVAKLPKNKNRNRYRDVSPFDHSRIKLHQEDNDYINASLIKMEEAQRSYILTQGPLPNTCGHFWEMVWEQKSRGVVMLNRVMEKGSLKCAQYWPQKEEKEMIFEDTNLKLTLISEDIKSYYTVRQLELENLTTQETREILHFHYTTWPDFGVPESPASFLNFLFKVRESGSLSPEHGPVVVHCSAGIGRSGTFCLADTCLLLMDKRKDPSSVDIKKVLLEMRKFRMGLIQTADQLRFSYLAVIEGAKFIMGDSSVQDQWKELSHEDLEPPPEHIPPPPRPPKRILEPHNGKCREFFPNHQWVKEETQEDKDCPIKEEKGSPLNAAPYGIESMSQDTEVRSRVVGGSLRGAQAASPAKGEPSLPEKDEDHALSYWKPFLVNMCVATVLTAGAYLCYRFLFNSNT
Put plainly: PTP1B enzyme assay (p-NPP substrate). To be noted: for IC50: mean ± SD of three replicates, 4 mM p-NPP, 37 °C, 30 min; for PTP1B inhibition mode (Lineweaver-Burk plot): p-NPP 1, 2, 4, 8 mM, compound 1, 2, 5, 10 μM. The data set is classed as biochemical. How it is done: PTP1B (human, recombinant) was purchased from BIOMOL International LP (USA) and the enzyme activity was measured using p-nitrophenyl phosphate (p-NPP) (N1891, Sigma-Aldrich, St. Louis, MO, USA) as a substrate. In general, the assay was performed in 96-well plate containing 4 mM p-NPP and PTP1B (0.05–0.1 μg) in enzyme buffer (50 mM citrate (pH 6.0), 0.1 M NaCl, 1 mM dithiothreitol (DTT), and 1 mM EDTA) with or without test compounds. The assay was also carried out in the absence of PTP1B enzyme to exclude the effect of test compounds on the measurement absorbance. Following incubation at 37 °C for 30 min, the reaction was terminated with 10 M NaOH solution. The amount of produced p-nitrophenol was estimated by measuring the absorbance at 405 nm using an absorbance microplate reader (VersaMax™, Randor, PA, USA). For the enzyme kinetic determination, Lineweaver-Burk was used to determine the inhibition type of PTP1B. On the basis of Lineweaver-Burk double reciprocal plots, the PTP1B inhibition mode was obtained at various concentrations of p-NPP substrate (1, 2, 4, and 8 mM) without or with different test compound concentrations (1, 2, 5, and 10 μM).

The test system of data set [6] is MCF-7 cells. In words: Flow cytometric analysis of cell apoptosis (ApopNexin FITC / PI). The class given is cell-based. The procedure: An ApopNexin™ FITC kit (Millipore) was used for the flow cytometric analysis. After MCF-7 cells were seeded on 6-well plates and incubated for 24 h, the cells were treated with test compounds and incubated for 12 h. The detached cells were collected and resuspended to wash the cells twice with PBS. The cells were suspended in cold binding buffer (10 mM Hepes/NaOH pH 7.4, 140 mM NaCl, 2.5 mM CaCl2) at a concentration of 10^6 cells/mL. Annexin conjugate ApopNexin™ FITC and propidium iodide (PI) were added to the cell suspension, which was incubated for 15 min in the dark. Then, the double-stained cells were immediately analyzed using a flow cytometer (BD bioscience, San Jose, CA, USA).
On the technique in general: In flow cytometry, cells or beads pass a laser one at a time.

The mark [7] stands for this setting: Homo sapiens, MCF7, read-out: Cytotoxic Activities (IC50, μM) MCF7/TAMR.
[8] abbreviates: Homo sapiens, MCF7, read-out: Cytotoxic Activities (IC50, μM) MCF7.
Where [9] appears, read: Homo sapiens, MDA-MB-231, read-out: Cytotoxic Activities (IC50, μM) MDA-MB-231.

Read-outs that look alike come from different tables or passages of the source. Some results are limits rather than exact numbers.

Consider “4-hydroxy tamoxifen [4-OH tamoxifen, reference compound]”, for which the IC50 came out at 13.6 ± 1.25 µM in data set [1] (read-out: Cytotoxic Activities (IC50, μM) MCF7/TAMR, MCF7/TAMR, mean ± SD of three replicates); 2.11 ± 0.39 µM in data set [2] (read-out: Cytotoxic Activities (IC50, μM) MCF7, MCF7, mean ± SD of three replicates); 3.1 ± 0.31 µM in data set [3] (read-out: Cytotoxic Activities (IC50, μM) MDA-MB-231, MDA-MB-231, mean ± SD of three replicates).

In the case of `CC(CO)c1cc2c(c(O)c1O)[C@@]1(C)CCCC(C)(C)C1CC2=O` (stereo partly drawn) [Compound 2, cyrtophyllones B], in data set [4], the “cytotoxic activities against breast cancer lines, IC50 values ranging over the cell lines” value was 0.84 ± 0.17 to 13.42 ± 1.26. For the same molecule, the IC50 in data set [1] (setting [7]) amounted to 13.4 ± 1.26 µM; in data set [5] it was 6.77 ± 1.28 µM; in data set [2] (setting [8]) it was 7.91 ± 0.39 µM; in data set [3] (setting [9]), 4.04 ± 0.8 µM.

Take `CC1=C(C)C2=CC(=O)c3c(O)c4c(c(O)c3[C@@]2(C)CC1)O[C@@H](C)C4` [Compound 3, uncinatone]: in data set [4], the “cytotoxic activities against breast cancer lines, IC50 values ranging over the cell lines” value is 0.84 ± 0.17 to 13.42 ± 1.26. The IC50 came to 7.73 ± 1.02 µM in data set [1] (setting [7]), 5.41 ± 0.68 µM in data set [5], 6.02 ± 2.32 µM in data set [2] (setting [8]) and 5.14 ± 1.55 µM in data set [3] (setting [9]). Moreover, the “PTP1B inhibition mode (Lineweaver-Burk plot)” value in data set [5] is “noncompetitive”.

Take `CC1(C)CC[C@]2(C(=O)O)CC[C@]3(C)C(=CCC4[C@@]5(C)CCC(O[C@@H]6OC[C@H](O)[C@H](O)[C@H]6O)C(C)(C)C5CC[C@]43C)C2C1` (stereo partly drawn) [Compound 6, 3-O-α-L-arabinopyranosyl olean-12-en-28-oic acid]: in data set [6] (10 μM, 12 h), the “percentage of apoptotic cancer cells (higher right field, Annexin FITC/PI)” value turned out to be 89.47%. Also, the viability at 10 µM in data set [6] (Homo sapiens, MCF7, 12 h, read-out: percentage of cells in lower left field (viable; low Annexin V and PI staining)) was 0.75%. Besides, the IC50 turned out to be 1.39 ± 0.18 µM in data set [1] (setting [7]), 4.08 ± 1.09 µM in data set [5], 1.11 ± 0.04 µM in data set [2] (setting [8]) and 0.84 ± 0.17 µM in data set [3] (setting [9]). Besides, the “PTP1B inhibition mode (Lineweaver-Burk plot)” value in data set [5] is “noncompetitive”.

With `CC1(C)CC[C@]2(C(=O)O)CC[C@]3(C)C(=CCC4[C@@]5(C)CCC(O[C@@H]6OC[C@H](O[C@@H]7O[C@H](CO)[C@@H](O)[C@H](O)[C@H]7O)[C@H](O)[C@H]6O)C(C)(C)C5CC[C@]43C)C2C1` (stereo partly drawn) [Compound 8], the IC50 in data set [1] (setting [7]) is 1.78 ± 0.13 µM; in data set [5], 21.8 ± 4.74 µM; in data set [2] (setting [8]), 1.29 ± 0.09 µM; in data set [3] (setting [9]) it was 1.55 ± 0.21 µM.

`CC1(C)CC[C@]2(C(=O)O)CC[C@]3(C)C(=CCC4[C@@]5(C)C[C@@H](O)[C@@H](O)[C@](C)(CO)C5CC[C@]43C)C2C1` (stereo partly drawn) [Compound 11, 2α,3α,23-trihydroxyoleane-12-en-28-oic acid]: the IC50 in data set [5] is 7.78 ± 1.43 µM; in data set [2] (setting [8]) it was greater than 40 µM.

Consider `CC/C(=C(\c1ccccc1)c1ccc(OCCN(C)C)cc1)c1ccccc1` [Tamoxifen, tamoxifen, reference compound], for which the IC50 in data set [1] (setting [7]) was found to be 25.4 ± 1.79 µM; in data set [2] (setting [8]) it was 8.01 ± 1.81 µM; in data set [3] (setting [9]), 10.1 ± 1.51 µM.
